{"source": "EPA's ToxValDB 9.5 (doi:10.2903/j.efsa.2009.1390)", "key": {"Anas platyrhynchos": {"test_system": "Anas platyrhynchos", "settings": "acute; oral; unspecified; mortality"}, "Typhlodromus pyri": {"test_system": "Typhlodromus pyri", "test": "LR50; higher = less toxic", "settings": "not reported; mortality"}, "Oryctolagus sp.": {"test_system": "Oryctolagus sp.", "settings": "reproduction developmental; body weight"}, "Daphnia magna": {"test_system": "Daphnia magna", "settings": "chronic/long-term; duration: 21 days; reproduction"}, "Rattus norvegicus": {"test_system": "Rattus norvegicus", "settings": "acute; oral; F; mortality"}, "Apis mellifera": {"test_system": "Apis mellifera", "settings": "acute, mortality"}, "Bibionidae": {"test_system": "Bibionidae", "settings": "chronic/long-term; duration: 28 days"}, "Canidae": {"test_system": "Canidae", "settings": "chronic; duration: 1 years; oral; Dog Other; organ weight"}}, "data": [{"smiles": "Nc1c(Cl)c(Cl)nc(C(=O)[O-])c1Cl.[K+]", "note": "[Picloram potassium salt]", "values": [{"measurement": "LC50", "setting": "Colinus virginianus; acute, oral, diet, mortality", "value": "> 2200", "unit": "mg/kg-day"}, {"measurement": "LD50", "setting": "Anas platyrhynchos", "value": "> 2250", "unit": "mg/kg-day"}]}, {"smiles": "Nc1c(Cl)c(Cl)nc(C(=O)O)c1Cl", "note": "[Picloram]", "values": [{"measurement": "LR50", "setting": "Typhlodromus pyri", "value": "> 23.4", "unit": "g/ha"}, {"measurement": "LC50", "setting": "Tagia sp.; acute, duration: 14 days, mortality", "value": "> 4480", "unit": "mg/kg"}, {"measurement": "NOEC", "setting": "Tagia sp.; chronic/long-term, duration: 8 weeks", "value": 0.167, "unit": "mg/kg"}, {"measurement": "NOAEL", "setting": "Oryctolagus sp.", "value": 30, "unit": "mg/kg-day"}, {"measurement": "NOEC", "setting": "Daphnia magna", "value": 6.79, "unit": "mg/L"}, {"measurement": "NOEC", "setting": "Colinus virginianus; reproduction developmental", "value": 65, "unit": "mg/kg-day"}, {"measurement": "LD50", "setting": "Rattus norvegicus", "value": 4010, "unit": "mg/kg-day"}, {"measurement": "LD50", "setting": "Apis mellifera; dermal", "value": "> 100", "unit": "µg/piece"}, {"measurement": "LD50", "setting": "Apis mellifera; oral, unspecified", "value": "> 74", "unit": "µg/piece"}, {"measurement": "LC50", "setting": "Oncorhynchus mykiss; acute, duration: 96 hours, mortality", "value": 8.8, "unit": "mg/L"}, {"measurement": "NOEC", "setting": "Oncorhynchus mykiss; chronic/long-term, duration: 70 days, development", "value": 0.55, "unit": "mg/L"}, {"measurement": "NOEC", "setting": "Bibionidae", "value": 100, "unit": "mg/L"}, {"measurement": "NOAEL", "setting": "Canidae", "value": 35, "unit": "mg/kg-day"}]}]}
